Experiments:
AhR response element = experiment: Multiplexed Gluc-tag reporter assay, AhR response element; assay type: cell-based
Experimental: (§1) Two separate detection assays were conducted to check the profile of FCICC (6-Formylindolo [3, 2-b] carbazole Indolo [3,2-b] carbazole-6-carboxaldehyde-5, 11-dihydro, an AhR response element inducer, commercially available from Biomol, Plymouth Meeting, Pa.) and IL-1β and TNF-α (NF-κB response element inducer).
(§2) Purified Antibodies were diluted in DPBS with 5% glycerol at 5 μg/ml concentration. […] of diluted antibody solutions were dispensed onto wells of a […] 600 plate (Greiner Bio-One, Monroe, N.C.), and the plate was tapped gently to distribute the antibody solutions evenly on the bottom of the well. The plate was sealed tightly with a PCR sealing film. The antibody plate was stored at 4° C. for one week for antibodies to bind.
At the end of incubation, 200 μl of Blocking Reagent (Attagene, Research Triangle Park, N.C.) was added to the wells to block the unbounded surface, either for 1 hour at room temperature for quick use, or at 4° C. overnight. The plate was washed 4 times with DPBS (Invitrogen, Carlsbad, Calif.) by flicking the solution out into a waste container and then blotted dry briefly on layers of paper towel. […]
(§3) After the incubation, samples were removed by gently flicking and the plate was washed 4 times with DPBS as above. […] The reading was normalized against the minimal promoter driven reporter.

CRE = experiment: Multiplexed Gluc-tag reporter assay, CRE; assay type: cell-based; conditions: twelve response elements/Gluc tags, four assays (FIG. 8)
Experimental: as §2
(§4) At the end of incubation, 200 μl of Blocking Reagent (Attagene, Research Triangle Park, N.C.) was added to the wells to block the unbounded surface, either for 1 hour at room temperature for quick use, or at 4° C. overnight. The plate was washed 4 times with DPBS (Invitrogen, Carlsbad, Calif.) by flicking the solution out into a waste container and then blotted dry briefly on layers of paper towel. Target samples were diluted in Binding Reagent (Attagene, Inc., Research Triangle Park, N.C.). After the washing, 100 μl of diluted testing samples were added to the well and incubated at RT for 1 hour with gentle rocking agitation.
as §3

[1] = Stability of coelenterazine substrate in assay reagents; assay type: physicochemical; conditions: over 70 minutes after dilution from methanol stock into assay reagents
Experimental: It is well known that coelenterazine is not stable in aqueous solutions. FIGS. 3C and 3D show the stability profiles of coelenterazine substrate in different assay reagents after being diluted from its methanol stock. A solution of Gluc enzyme was injected at different time points into substrates that were prepared at the same time. The overall signal strength decreased about ten times over 70 minutes and there was no significant difference among these buffers in the stability of the substrate. Once again, the Attagene reagent provided better sensitivity and stronger RLU output.

NF-κB response element = experiment: Multiplexed Gluc-tag reporter assay, NF-κB response element; assay type: cell-based
Experimental: as §1, §2, §4, §3

[2] = seven antibodies on 96-well plate, two separate detection assays (FIGS. 7A, 7B)
[3] = twelve response elements/Gluc tags, four assays (FIG. 8)

| Compound | induction of NF-κB (NF-κB response element; [2]) | induction of NF-κB (NF-κB response element; [3]) | also measured |
| --- | --- | --- | --- |
| O=Cc1c2[nH]c3ccccc3c2cc2c1[nH]c1ccccc12 [FCICC, 6-Formylindolo [3,2-b] carbazole Indolo [3,2-b] carbazole-6-carboxaldehyde-5, 11-dihydro] |  |  | induction of AhR (AhR response element; [2]): specific induction; induction of AhR (AhR response element; [3]): specific induction |
| C=C[C@@]1(C)CC(=O)[C@]2(O)[C@@]3(C)[C@@H](O)CCC(C)(C)[C@@H]3[C@H](O)[C@H](OC(C)=O)[C@@]2(C)O1 [FSK] |  |  | induction of CRE (CRE): specific induction |
| Oc1ccc(Cc2nc3c(Cc4ccccc4)nc(-c4ccc(O)cc4)cn3c2O)cc1 [coelenterazine] |  |  | decrease of overall signal strength [1]: about ten |
| IL-1β: NF-κB response element inducer | specific induction | specific induction |  |
| TNF-α | specific induction | specific induction |  |

— US10544472B2, “Multiplexing transcription factor reporter protein assay process and system” (Attagene, Inc., priority 2014, dated 2020)
